# Data from PubChem BioAssay (NCI).
#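 1) Cells in 96-well plates. 2) Compound, 48 h, 5 concentrations. 3) Linear interpolation between surrounding doses. 4) Unreached endpoint = highest concentration. TGI denotes the concentration required for complete inhibition of growth.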
# Key:
# Assay in all cases: NCI anticancer screen, dose series, 48 h
# EKVX NSCLC = system: EKVX NSCLC
# CCRF-CEM leukemia = system: CCRF-CEM leukemia
# RPMI-8226 leukemia = system: RPMI-8226 leukemia
# HOP-62 NSCLC = system: HOP-62 NSCLC
# OVCAR-4 ovarian = system: OVCAR-4 ovarian
# U251 CNS = system: U251 CNS
# HCT-116 colon = system: HCT-116 colon
# M14 melanoma = system: M14 melanoma
# HT29 colon = system: HT29 colon
# ACHN renal = system: ACHN renal
# SK-OV-3 ovarian = system: SK-OV-3 ovarian
# HS 578T breast = system: HS 578T breast
# HL-60(TB) leukemia = system: HL-60(TB) leukemia
# CAKI-1 renal = system: CAKI-1 renal
# NCI/ADR-RES ovarian = system: NCI/ADR-RES ovarian
SMILES,TGI (EKVX NSCLC) [µM],TGI (CCRF-CEM leukemia) [µM],TGI (RPMI-8226 leukemia) [µM],TGI (HOP-62 NSCLC) [µM],TGI (OVCAR-4 ovarian) [µM],TGI (U251 CNS) [µM],TGI (HCT-116 colon) [µM],TGI (M14 melanoma) [µM],TGI (HT29 colon) [µM],TGI (ACHN renal) [µM],TGI (SK-OV-3 ovarian) [µM],TGI (HS 578T breast) [µM],TGI (HL-60(TB) leukemia) [µM],TGI (CAKI-1 renal) [µM],TGI (NCI/ADR-RES ovarian) [µM]
CC1C(OC2O[C@@H]3O[C@@]4(C)CC[C@H]5[C@H](C)CC[C@@H](C2C)[C@@]35O4)O[C@@H]2O[C@@]3(C)CC[C@H]4[C@H](C)CC[C@@H]1[C@@]24O3 (some centres undefined),> 50,> 50,> 50,> 50,> 50,> 50,> 50,> 50,> 50,> 50,> 50,> 50,> 50,> 50,–
C/C(=N\Nc1nc2cccnc2s1)c1ccccn1,5.73,> 100,> 100,–,29.5,> 100,> 32.2,–,–,1.07,2.79,–,> 100,12.2,0.06
O=C(NCCNCCCNC(=O)c1cc(-c2ccccc2)nc2ccccc12)c1cccc(OCc2ccccc2)c1OCc1ccccc1,3.1,3.47,5.05,3.01,3.03,–,3.13,3.1,2.98,3.11,3.1,–,3.19,3.01,3.51
CC1CCC2(CC1)NC1=C(CC(C)CC1)C1=C2CC(C)CC1 (centres undefined),> 100,43.6,55.6,–,94.2,33.5,28,40.6,46.5,62.8,> 100,63.2,35.9,54.5,–
CCCCCC/C=C1\CCC(CN2CCOCC2)C1=O (centres undefined),19.1,> 25.4,> 100,32.8,38.8,29.3,27.7,28.1,34.2,31.2,> 79.4,–,15.7,31.4,–
FC(F)(Sc1ncc[nH]1)c1nc2ccccc2o1,–,> 100,> 100,> 100,> 100,> 100,> 100,> 100,> 100,> 100,> 100,> 100,–,> 100,> 100
COc1ccc(C(=O)/C=C/c2ccc(OCCSCCCCCCCCCCSCCOc3ccc(/C=C/C(=O)c4ccc(OC)c(OC)c4)cc3)cc2)cc1OC,> 100,> 100,> 100,> 100,–,–,> 100,> 100,> 100,> 100,> 100,> 100,> 100,> 100,–
O=C(O)c1ccc(C2SCc3nc4ccccc4n32)cc1 (centres undefined),> 100,> 100,> 100,> 100,> 100,> 100,> 100,> 100,> 100,> 100,–,> 100,> 100,> 100,–
CC(=O)OC1COC(N2C(=O)C(=O)c3cc(Br)ccc32)C(OC(C)=O)C1OC(C)=O (centres undefined),> 100,> 100,> 100,> 100,> 100,> 100,–,> 100,> 100,> 100,> 100,–,–,> 100,–
CN1CN(c2ccccc2)C2(CCN(CCC3COc4ccccc4O3)CC2)C1=O (centres undefined),51.4,77.4,42.7,–,–,66.5,23.2,42,19.6,> 100,71.1,–,45.8,77.5,49.6
O=c1c2cc(Cl)cc(Cl)c2oc2nc3n(c(=O)c12)CCCS3,> 100,> 100,> 100,> 100,> 100,> 100,> 100,> 100,–,> 100,> 100,> 100,–,> 100,> 100
COP(=O)(OC)C(O)CC(C)C (centres undefined),> 100,–,> 100,> 100,> 100,> 100,> 100,> 100,> 100,> 100,> 100,–,> 100,> 100,–
CSc1ncc2c(n1)sc1c(=O)n(-c3ccccc3)cnc12,–,> 100,> 100,> 100,> 100,> 100,> 100,> 100,> 100,> 100,> 100,> 100,–,> 100,> 100
Cc1c2ccncc2c(C)c2c1[nH]c1ccc(OCC(F)(F)F)cc12,3.09,4.9,5.32,3.03,3.48,2.98,–,3.39,3.11,2.88,3.31,–,–,3.66,–
COC(=O)C1=C(C(=O)OC)SC2(S1)C(C(=O)OC)=C(C(=O)OC)Sc1c2ssc1=Nc1ccc(Cl)cc1,2.8,–,–,3.36,2.43,2.64,1.15,2.79,1.78,2.7,4.29,> 100,6.74,2.21,–
O=C(CCCl)NNC1=NCCCN1,> 100,> 100,> 100,> 100,> 100,> 100,> 100,> 100,> 100,> 100,> 100,> 100,> 100,–,> 100
COc1ccc(C2CC3(c4ccccc4)ON=C(c4ccccc4)N3c3ccccc3S2)cc1 (centres undefined),> 100,> 100,> 100,> 100,> 100,> 100,> 100,> 100,> 100,> 100,> 100,> 100,–,> 100,> 100
